What is called IC50 is the midpoint of a concentration-inhibition curve. One may read the half-life as the time needed for the level to fall by half in the phase considered. A higher half-life goes with slow loss.

In series [1] the test system is U-251. Nature of the series: Antiproliferative activity against human U-251 cells assessed as reduction in cell viability incubated for 24 hrs by MTT assay. The note with it: U-251, 24 h. It is filed as functional, cell-based. On the technique in general: Tetrazolium dyes change colour on reduction, which living cells bring about.
Series [2] addresses T1, Histone deacetylase 1 (Homo sapiens, UniProt Q13547). Briefly: Inhibition of HDAC1 (unknown origin).
In series [3] the target is T2, Protein deacetylase HDAC6 (Homo sapiens, UniProt Q9UBN7).
T2 sequence (Q9UBN7 whole entry): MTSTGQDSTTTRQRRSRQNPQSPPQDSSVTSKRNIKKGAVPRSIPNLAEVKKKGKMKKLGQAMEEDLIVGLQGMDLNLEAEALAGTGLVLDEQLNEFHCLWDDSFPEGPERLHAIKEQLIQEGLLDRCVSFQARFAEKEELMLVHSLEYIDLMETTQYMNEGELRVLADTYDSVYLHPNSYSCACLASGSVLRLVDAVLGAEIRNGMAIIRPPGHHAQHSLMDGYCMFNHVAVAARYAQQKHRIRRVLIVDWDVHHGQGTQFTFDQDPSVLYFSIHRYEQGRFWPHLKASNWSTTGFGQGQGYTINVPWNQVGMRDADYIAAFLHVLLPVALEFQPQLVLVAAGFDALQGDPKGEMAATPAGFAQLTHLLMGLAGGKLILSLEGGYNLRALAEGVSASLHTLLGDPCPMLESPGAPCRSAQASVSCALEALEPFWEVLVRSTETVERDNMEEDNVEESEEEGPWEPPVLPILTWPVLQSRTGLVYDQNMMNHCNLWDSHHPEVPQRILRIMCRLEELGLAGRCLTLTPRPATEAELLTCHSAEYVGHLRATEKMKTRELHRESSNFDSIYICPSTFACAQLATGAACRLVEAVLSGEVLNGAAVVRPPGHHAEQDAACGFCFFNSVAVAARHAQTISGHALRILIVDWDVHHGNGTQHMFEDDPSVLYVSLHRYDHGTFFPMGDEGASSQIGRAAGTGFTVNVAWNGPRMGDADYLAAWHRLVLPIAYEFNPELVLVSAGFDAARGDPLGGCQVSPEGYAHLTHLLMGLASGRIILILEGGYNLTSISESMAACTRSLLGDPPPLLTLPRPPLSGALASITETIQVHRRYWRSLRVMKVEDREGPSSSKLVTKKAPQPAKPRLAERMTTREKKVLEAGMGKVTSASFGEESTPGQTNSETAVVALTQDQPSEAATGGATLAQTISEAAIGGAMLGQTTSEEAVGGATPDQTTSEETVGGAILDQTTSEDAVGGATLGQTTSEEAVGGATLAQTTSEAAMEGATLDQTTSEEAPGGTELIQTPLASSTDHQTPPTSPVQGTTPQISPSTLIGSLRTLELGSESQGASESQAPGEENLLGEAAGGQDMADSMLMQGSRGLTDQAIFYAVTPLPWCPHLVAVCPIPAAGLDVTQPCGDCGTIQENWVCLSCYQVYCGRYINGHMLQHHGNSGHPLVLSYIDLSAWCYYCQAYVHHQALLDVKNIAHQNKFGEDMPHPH
Briefly: Inhibition of human HDAC6.

A short description of series [4]: Brain to plasma ratio in rat. Format: ADME. The note with it: read-out: BPR.
Series [5] in a line: Half life in mouse. It is filed as ADME, organism-based. The note with it: in vivo.
The test system of series [6] is U-87 MG. Briefly: Antiproliferative activity against human U87 cells assessed as reduction in cell viability incubated for 72 hrs by MTT assay.
The target in series [7] is T3, Histone deacetylase 8 (Homo sapiens, UniProt Q9BY41).
T3 sequence (Q9BY41 whole entry): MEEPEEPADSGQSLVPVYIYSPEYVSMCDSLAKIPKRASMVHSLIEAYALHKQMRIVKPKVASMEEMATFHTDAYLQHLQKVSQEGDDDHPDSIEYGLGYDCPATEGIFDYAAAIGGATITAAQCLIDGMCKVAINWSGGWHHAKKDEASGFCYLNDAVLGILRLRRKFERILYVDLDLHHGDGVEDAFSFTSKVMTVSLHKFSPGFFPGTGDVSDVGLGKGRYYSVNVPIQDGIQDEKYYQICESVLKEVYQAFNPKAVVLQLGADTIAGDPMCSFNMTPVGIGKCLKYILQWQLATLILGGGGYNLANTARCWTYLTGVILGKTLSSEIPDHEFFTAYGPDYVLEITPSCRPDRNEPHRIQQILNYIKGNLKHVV
Nature of the series: Inhibition of C-terminal FLAG-tagged full length human recombinant HDAC8 expressed in baculovirus.

The target in series [8] is Histone deacetylase 2 (Homo sapiens, UniProt Q92769). Nature of the series: Inhibition of C-terminal FLAG-tagged full length human recombinant HDAC2 expressed in Sf9 cells by HTRF method.
Histone deacetylase 2, sequence (Q92769 whole entry): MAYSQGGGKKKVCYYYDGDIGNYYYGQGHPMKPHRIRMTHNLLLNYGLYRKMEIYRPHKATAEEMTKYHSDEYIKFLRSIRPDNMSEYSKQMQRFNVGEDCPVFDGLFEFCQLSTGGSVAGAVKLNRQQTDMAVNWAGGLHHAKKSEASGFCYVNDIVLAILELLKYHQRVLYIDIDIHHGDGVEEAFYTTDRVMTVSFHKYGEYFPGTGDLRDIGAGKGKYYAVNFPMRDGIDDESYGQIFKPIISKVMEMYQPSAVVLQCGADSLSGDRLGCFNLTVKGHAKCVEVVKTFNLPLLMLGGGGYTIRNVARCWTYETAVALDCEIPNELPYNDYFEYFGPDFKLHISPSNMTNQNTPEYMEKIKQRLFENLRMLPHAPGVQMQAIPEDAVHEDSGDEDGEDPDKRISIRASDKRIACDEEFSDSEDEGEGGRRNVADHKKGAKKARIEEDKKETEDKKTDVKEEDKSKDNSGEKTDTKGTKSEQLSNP
Series [9] concerns the target T2, Protein deacetylase HDAC6. Briefly: Inhibition of N-terminal FLAG-tagged full length human recombinant HDAC6 expressed in baculovirus.
For series [10], the target named is T1, Histone deacetylase 1. Briefly: Inhibition of C-terminal FLAG-tagged human recombinant HDAC1 expressed in baculovirus by HTRF method. A general note: TR-FRET usually uses a lanthanide donor and a delayed reading to cut background.
The target of series [11] is Histone deacetylase 4 (Homo sapiens) (UniProt P56524). Briefly: Inhibition of human recombinant HDAC4 (645 to 1057 residues) expressed in Escherichia coli.
Histone deacetylase 4 (Homo sapiens), sequence (P56524 whole entry, the tested form may be a part): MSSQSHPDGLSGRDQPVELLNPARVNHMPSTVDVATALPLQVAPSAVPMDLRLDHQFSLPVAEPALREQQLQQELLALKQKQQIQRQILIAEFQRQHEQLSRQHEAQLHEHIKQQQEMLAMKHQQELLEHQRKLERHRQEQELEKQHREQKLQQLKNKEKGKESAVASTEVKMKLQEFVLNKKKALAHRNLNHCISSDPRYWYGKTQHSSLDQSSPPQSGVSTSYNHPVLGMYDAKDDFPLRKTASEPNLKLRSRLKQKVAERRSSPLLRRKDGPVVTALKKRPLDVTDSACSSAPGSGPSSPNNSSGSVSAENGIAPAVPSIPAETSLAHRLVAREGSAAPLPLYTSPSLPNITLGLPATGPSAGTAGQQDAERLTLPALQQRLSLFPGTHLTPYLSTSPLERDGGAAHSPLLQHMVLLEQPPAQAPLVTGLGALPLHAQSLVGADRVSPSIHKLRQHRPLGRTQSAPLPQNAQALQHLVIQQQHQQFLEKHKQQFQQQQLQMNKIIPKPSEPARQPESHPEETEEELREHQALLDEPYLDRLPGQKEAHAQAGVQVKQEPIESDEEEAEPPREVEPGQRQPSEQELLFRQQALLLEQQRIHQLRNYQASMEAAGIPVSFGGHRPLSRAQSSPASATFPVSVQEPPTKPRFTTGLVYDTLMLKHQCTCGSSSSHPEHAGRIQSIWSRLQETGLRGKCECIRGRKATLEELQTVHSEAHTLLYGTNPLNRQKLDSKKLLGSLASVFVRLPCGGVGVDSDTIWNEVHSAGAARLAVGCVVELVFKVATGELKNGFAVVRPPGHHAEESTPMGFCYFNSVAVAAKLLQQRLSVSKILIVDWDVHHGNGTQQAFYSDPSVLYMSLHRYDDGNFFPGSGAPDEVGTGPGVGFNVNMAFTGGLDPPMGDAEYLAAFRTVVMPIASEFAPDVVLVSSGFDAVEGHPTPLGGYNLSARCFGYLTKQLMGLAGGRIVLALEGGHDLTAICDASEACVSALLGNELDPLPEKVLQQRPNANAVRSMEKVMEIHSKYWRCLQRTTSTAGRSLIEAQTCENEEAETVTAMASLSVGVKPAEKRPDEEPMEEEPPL
The nature of series [12]: Half life in mouse plasma at 1 uM by LC-MS/MS analysis. Format: ADME, cell-free.
Series [13] has as its system U-87 MG. Nature of the series: Antiproliferative activity against human U87 cells assessed as reduction in cell growth incubated for 72 hrs by MTT assay. It is filed as functional, cell-based, U-87MG ATCC.

T1 sequence (Q13547 whole entry): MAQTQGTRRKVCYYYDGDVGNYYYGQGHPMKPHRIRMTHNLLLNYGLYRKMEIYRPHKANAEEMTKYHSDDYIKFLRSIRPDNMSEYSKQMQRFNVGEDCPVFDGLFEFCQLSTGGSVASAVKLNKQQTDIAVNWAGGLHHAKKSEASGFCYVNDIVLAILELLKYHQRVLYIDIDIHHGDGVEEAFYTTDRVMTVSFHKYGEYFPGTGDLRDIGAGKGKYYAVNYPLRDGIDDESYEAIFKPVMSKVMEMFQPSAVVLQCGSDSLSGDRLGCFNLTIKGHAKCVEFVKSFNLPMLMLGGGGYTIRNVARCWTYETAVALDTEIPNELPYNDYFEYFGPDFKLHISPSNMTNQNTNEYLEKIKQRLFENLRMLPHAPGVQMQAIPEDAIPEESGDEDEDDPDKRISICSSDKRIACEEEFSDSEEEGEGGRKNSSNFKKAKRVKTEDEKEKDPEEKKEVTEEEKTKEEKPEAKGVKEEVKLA

Turning to `O=C(CCCCCCC(=O)Nc1cc(C(F)(F)F)ccc1Cl)NO`, the half-maximal inhibitory concentration (IC50) in [1] stood at 890 nM; in series [2] it was 120 nM.
In series [3], `CN1CCC2c3ccccc3N(Cc3ccc(C(=O)NO)cc3)C2C1` (centres undefined) gave an IC50 of 15 nM. In addition, the Kp in series [4] was found to be 0.18.
Take `COc1cc(/C=C/C(=O)CC(=O)/C=C/c2ccc(O)c(OC)c2)ccc1O` [CURCUMIN]: the t1/2 in series [5] worked out at 0.287 h. The IC50 in series [6] was determined as 31900 nM.
Consider `O=C(NO)c1ccc(CN2CCCSc3ccccc32)cc1`, for which, in [4], the Kp was 2.3.
As for `COc1cc(-c2nc(C(=O)NCc3ccc(C(=O)NO)cc3)cc3c2[nH]c2ccccc23)cc(OC)c1OC`, the IC50 is above 559 nM in series [7]; above 559 nM in [8]; 3.8 nM in series [9]; 8.7 nM in series [10]; above 559 nM in series [11].
The molecule `COc1cc(/C=C/C(=O)CC(=O)/C=C/c2ccc(/C=C/C(=O)NO)cc2)ccc1O` showed a half-life at 1 µM in [12] of 1.53 h. For the same molecule, the IC50 in [13] came to 2780 nM.
